The text below walks through data of ChEMBL document CHEMBL3763041, “Design and synthesis of new imidazo[1,2-a]pyridine and imidazo[1,2-a]pyrazine derivatives with antiproliferative activity against melanoma cells” (Eur J Med Chem, 2016).

The assay in a line: Antiproliferative activity against human A375P cells expressing BRAF V600E mutant after 72 hrs by CellTiter-Glo assay. The assay is classed as functional, cell-based. (In general: Cellular ATP, detected with luciferase, serves as a proxy for viable cell number.)

With `Cc1cc(C)cc(C(=O)Nc2cccc(-c3cnc4c(NC(=O)c5ccccc5)cccn34)c2)c1`, the concentration for half-maximal inhibition (IC50) is above 30000 nM.
The result for `Cc1ccc(C(=O)Nc2cccc(-c3cnc4c(N)nccn34)c2)cc1Cl` reads 2270 nM; that for `Nc1nccn2c(-c3cccc(NC(=O)c4cc(Cl)c(F)c(Cl)c4)c3)cnc12`, 4090 nM.
Next, `Nc1nccn2c(-c3cccc(NC(=O)c4ccc(Cl)c(C(F)(F)F)c4)c3)cnc12`: 1410 nM; `COc1cc(C(=O)Nc2cccc(-c3cnc4c(N)nccn34)c2)cc(OC)c1OC`: 1540 nM; `Nc1nccn2c(-c3cccc(NC(=O)c4ccc(C(F)(F)F)cc4)c3)cnc12`: 7040 nM.
`O=C(Nc1cccc(-c2cnc3c(NC(=O)c4ccccc4)nccn23)c1)c1ccc(Cl)c(C(F)(F)F)c1` yielded an IC50 of 1820 nM.
Next, `Cc1ccc(C(=O)Nc2cccc(-c3cnc4c(NC(=O)c5ccccc5)cccn34)c2)cc1Cl`: 7070 nM; `O=C(Nc1cccc(Cl)c1)Nc1cccc(-c2cnc3c(NC(=O)c4ccccc4)cccn23)c1`: 7360 nM.
On to `O=C(Nc1cccc(-c2cnc3c(NC(=O)c4cc(C(F)(F)F)cc(C(F)(F)F)c4)nccn23)c1)c1ccc(Cl)c(C(F)(F)F)c1`, for which the IC50 was found to be 550 nM.
The result for `O=C(Nc1cccc(-c2cnc3c(NC(=O)c4cccc(OC(F)(F)F)c4)nccn23)c1)c1ccc(F)c(Cl)c1` reads 1500 nM.
Next, `O=C(Nc1cccc(-c2cnc3c(NC(=O)c4ccccc4)cccn23)c1)c1ccc(C(F)(F)F)cc1`: 1700 nM; `O=C(Nc1cccc(-c2cnc3c(NC(=O)c4ccccc4)cccn23)c1)c1ccc(Br)cc1`: 6350 nM; `O=C(Nc1cccc(-c2cnc3c(NC(=O)c4ccc(Cl)c(C(F)(F)F)c4)nccn23)c1)c1ccc(F)c(Cl)c1`: 1080 nM.
Turning to `O=C(Nc1cccc(-c2cnc3c(NC(=O)c4cc(F)cc(F)c4)nccn23)c1)c1ccc(Cl)c(C(F)(F)F)c1`, half-maximal inhibition (IC50) required 1620 nM.
Consider `O=C(Nc1cccc(-c2cnc3c(NC(=O)c4ccc(Cl)c(Cl)c4)nccn23)c1)c1ccc(Cl)c(C(F)(F)F)c1`, for which inhibition was half-maximal at 660 nM (IC50).
The result for `O=C(Nc1cccc(-c2cnc3c(NC(=O)c4ccccc4)cccn23)c1)c1ccc(OC(F)(F)F)cc1` reads 21300 nM.
Next, `Nc1nccn2c(-c3cccc(NC(=O)c4ccc(F)cc4F)c3)cnc12`: 7260 nM; `Cc1cc(C)cc(C(=O)Nc2cccc(-c3cnc4c(N)nccn34)c2)c1`: 820 nM; `O=C(Nc1cccc(-c2cnc3c(NC(=O)c4ccc(F)c(C(F)(F)F)c4)nccn23)c1)c1ccc(Cl)c(C(F)(F)F)c1`: 460 nM.
Take `O=C(Nc1cccc(-c2cnc3c(NC(=O)c4ccccc4)cccn23)c1)c1ccc(F)c(C(F)(F)F)c1`: the IC50 is above 30000 nM.
The result for `O=C(Nc1cccn2c(-c3cccc(NC(=O)c4cccc(Cl)c4Cl)c3)cnc12)c1ccccc1` reads above 30000 nM; that for `COc1ccc(C(=O)Nc2cccc(-c3cnc4c(NC(=O)c5ccccc5)cccn34)c2)cc1OC`, 9470 nM.
Next, `O=C(Nc1cccc(-c2cnc3c(NC(=O)c4ccc(Br)cc4)nccn23)c1)c1ccc(F)c(Cl)c1`: 490 nM.
Next, `O=C(Nc1cccc(-c2cnc3c(NC(=O)c4cccc(OC(F)(F)F)c4)nccn23)c1)c1ccc(Cl)c(C(F)(F)F)c1`: 1030 nM; `Nc1nccn2c(-c3cccc(NC(=O)c4cccc(C(F)(F)F)c4)c3)cnc12`: 2080 nM.
Take `O=C(Nc1cccc(-c2cnc3c(NC(=O)c4cc(Cl)c(F)c(Cl)c4)nccn23)c1)c1ccc(Cl)c(C(F)(F)F)c1`: the IC50 is above 30000 nM.
Next, `O=C(Nc1cccc(-c2cnc3c(NC(=O)c4ccccc4)nccn23)c1)c1ccc(F)c(Cl)c1`: 1160 nM; `COc1ccc(C(=O)Nc2cccc(-c3cnc4c(N)nccn34)c2)cc1OC`: 3840 nM; `O=C(Nc1cccc(-c2cnc3c(NC(=O)c4ccccc4)cccn23)c1)c1ccc(F)c(Cl)c1`: 8040 nM.
Next, `O=C(Nc1ccc(C(F)(F)F)cc1)Nc1cccc(-c2cnc3c(NC(=O)c4ccccc4)cccn23)c1`: 3010 nM.
Next, `O=C(Nc1cccc(-c2cnc3c(NC(=O)c4cc(Cl)c(F)c(Cl)c4)nccn23)c1)c1ccc(F)c(Cl)c1`: 1290 nM; `O=C(Nc1cccc(-c2cnc3c(NC(=O)c4ccccc4)cccn23)c1)Nc1cccc(C(F)(F)F)c1`: 4290 nM.
In the case of `O=C(Nc1cccc(-c2cnc3c(NC(=O)c4cc(F)cc(F)c4)nccn23)c1)c1ccc(F)c(Cl)c1`, the IC50 was 450 nM.
As to `Nc1nccn2c(-c3cccc(NC(=O)c4ccccc4)c3)cnc12`, the half-maximal inhibitory concentration (IC50) came to 850 nM. Compared with the last molecule, the IC50 is about 1.9-fold higher.
Next, `O=C(Nc1cccc(-c2cnc3c(NC(=O)c4ccccc4)cccn23)c1)c1cc(Cl)c(F)c(Cl)c1`: 7340 nM.
On to `O=C(Nc1cccc(-c2cnc3c(NC(=O)c4ccccc4)cccn23)c1)Nc1ccc(Cl)c(Cl)c1`, for which the IC50 was 4460 nM.
The result for `Nc1nccn2c(-c3cccc(NC(=O)c4cccc(Cl)c4Cl)c3)cnc12` reads 640 nM; that for `O=C(Nc1cccc(-c2cnc3c(NC(=O)c4ccc(C(F)(F)F)cc4)nccn23)c1)c1ccc(F)c(Cl)c1`, 560 nM; that for `O=C(Nc1cccc(-c2cnc3c(NC(=O)c4ccccc4)cccn23)c1)c1ccc(Cl)c(C(F)(F)F)c1`, above 30000 nM.
On to `Nc1nccn2c(-c3cccc(NC(=O)c4ccc(F)c(Cl)c4)c3)cnc12`, for which the IC50 was found to be 340 nM.
Take `O=C(Nc1cccc(-c2cnc3c(NC(=O)c4cccc(C(F)(F)F)c4)nccn23)c1)c1ccc(Cl)c(C(F)(F)F)c1`: the midpoint of inhibition, the IC50, lay at 12700 nM.
Next, `O=C(Nc1cccc(-c2cnc3c(NC(=O)c4ccc(F)c(Cl)c4)nccn23)c1)c1ccc(F)c(Cl)c1`: 890 nM.
`O=C(Nc1cccc(-c2cnc3c(NC(=O)c4ccccc4)cccn23)c1)c1ccccc1` gave an IC50 above 30000 nM.
Next, `Cc1ccc(C(=O)Nc2nccn3c(-c4cccc(NC(=O)c5ccc(Cl)c(C(F)(F)F)c5)c4)cnc23)cc1Cl`: 2790 nM.
The result for `Nc1nccn2c(-c3cccc(NC(=O)c4ccc(Cl)c(Cl)c4)c3)cnc12` reads 1210 nM; that for `O=C(Nc1cccc(-c2cnc3c(NC(=O)c4ccc(Cl)c(Cl)c4)nccn23)c1)c1ccc(F)c(Cl)c1`, 900 nM.
Next, `O=C(Nc1cccc(-c2cnc3c(NC(=O)c4ccccc4)cccn23)c1)Nc1cc(C(F)(F)F)cc(C(F)(F)F)c1`: 2080 nM.
`O=C(Nc1cccc(-c2cnc3c(NC(=O)c4ccccc4)cccn23)c1)c1cccc(OC(F)(F)F)c1` registered an IC50 above 30000 nM.
Next, `O=C(Nc1cccc(-c2cnc3c(NC(=O)c4cc(Cl)cc(Cl)c4)nccn23)c1)c1ccc(F)c(Cl)c1`: 1150 nM; `O=C(Nc1cccc(-c2cnc3c(NC(=O)c4cccc(C(F)(F)F)c4)nccn23)c1)c1ccc(F)c(Cl)c1`: 1080 nM.
`O=C(Nc1cccc(-c2cnc3c(NC(=O)c4ccccc4)cccn23)c1)Nc1cccc(Cl)c1Cl` displayed an IC50 of 15900 nM.
Next, `Nc1nccn2c(-c3cccc(NC(=O)c4ccc(F)c(C(F)(F)F)c4)c3)cnc12`: 2130 nM; `O=C(Nc1cccc(-c2cnc3c(NC(=O)c4ccccc4)cccn23)c1)c1cccc(C(F)(F)F)c1`: above 30000 nM; `O=C(Nc1cccc(-c2cnc3c(NC(=O)c4ccc(Cl)c(C(F)(F)F)c4)nccn23)c1)c1ccc(Cl)c(C(F)(F)F)c1`: 2460 nM.
In turn, `Nc1nccn2c(-c3cccc(NC(=O)c4ccc(OC(F)(F)F)cc4)c3)cnc12` yielded an IC50 of 430 nM. This IC50 is about 5.7-fold lower than that of the molecule before.
In turn, `Cc1ccc(C)c(C(=O)Nc2cccc(-c3cnc4c(NC(=O)c5ccccc5)cccn34)c2)c1` had an IC50 above 30000 nM.
As to `O=C(Nc1cccc(-c2cnc3c(NC(=O)c4ccccc4)cccn23)c1)c1cc(F)cc(F)c1`, it took 7940 nM to reach half-maximal inhibition (IC50). This lies in the single-digit micromolar range.
Next, `Nc1nccn2c(-c3cccc(NC(=O)c4cc(Cl)cc(Cl)c4)c3)cnc12`: 2940 nM; `Nc1nccn2c(-c3cccc(NC(=O)c4ccc(Br)cc4)c3)cnc12`: 750 nM; `O=C(Nc1cccc(-c2cnc3c(NC(=O)c4cc(C(F)(F)F)cc(C(F)(F)F)c4)nccn23)c1)c1ccc(F)c(Cl)c1`: 1160 nM.
The result for `Cc1cc(C)cc(C(=O)Nc2nccn3c(-c4cccc(NC(=O)c5ccc(Cl)c(C(F)(F)F)c5)c4)cnc23)c1` reads 180 nM.
The result for `Cc1ccc(C)c(C(=O)Nc2cccc(-c3cnc4c(N)nccn34)c2)c1` reads 2730 nM; that for `O=C(Nc1cccc(-c2cnc3c(NC(=O)c4cccc(Cl)c4Cl)nccn23)c1)c1ccc(F)c(Cl)c1`, 23300 nM.
Take `O=C(Nc1cccc(-c2cnc3c(NC(=O)c4ccc(OC(F)(F)F)cc4)nccn23)c1)c1ccc(F)c(Cl)c1`: it took 440 nM to reach half-maximal inhibition (IC50).
The result for `O=C(Nc1cccc(-c2cnc3c(NC(=O)c4ccccc4)cccn23)c1)Nc1ccc(Cl)c(C(F)(F)F)c1` reads 2320 nM.
Next, `Cc1ccc(C(=O)Nc2nccn3c(-c4cccc(NC(=O)c5ccc(F)c(Cl)c5)c4)cnc23)cc1Cl`: 980 nM.
The result for `O=C(Nc1cccc(-c2cnc3c(NC(=O)c4ccc(Br)cc4)nccn23)c1)c1ccc(Cl)c(C(F)(F)F)c1` reads 1800 nM; that for `Nc1nccn2c(-c3cccc(NC(=O)c4cc(F)cc(F)c4)c3)cnc12`, 460 nM.
In turn, `Nc1nccn2c(-c3cccc(NC(=O)c4cc(C(F)(F)F)cc(C(F)(F)F)c4)c3)cnc12` came in with an IC50 of 8320 nM.
The result for `O=C(Nc1cccc(-c2cnc3c(NC(=O)c4ccc(OC(F)(F)F)cc4)nccn23)c1)c1ccc(Cl)c(C(F)(F)F)c1` reads 1310 nM; that for `O=C(Nc1cccc(-c2cnc3c(NC(=O)c4ccc(F)c(C(F)(F)F)c4)nccn23)c1)c1ccc(F)c(Cl)c1`, 1140 nM.
`Nc1nccn2c(-c3cccc(NC(=O)c4cccc(OC(F)(F)F)c4)c3)cnc12` yielded an IC50 of 13800 nM.
As for `O=C(Nc1cccc(-c2cnc3c(NC(=O)c4ccc(C(F)(F)F)cc4)nccn23)c1)c1ccc(Cl)c(C(F)(F)F)c1`, the IC50 was found to be 1600 nM.
The result for `COc1cccc(C(=O)Nc2cccc(-c3cnc4c(N)nccn34)c2)c1C` reads 10100 nM; that for `O=C(Nc1cccc(-c2cnc3c(NC(=O)c4ccc(F)c(Cl)c4)nccn23)c1)c1ccc(Cl)c(C(F)(F)F)c1`, 2860 nM.
Take `Cc1cc(C)cc(C(=O)Nc2nccn3c(-c4cccc(NC(=O)c5ccc(F)c(Cl)c5)c4)cnc23)c1`: half-maximal inhibition (IC50) required 1640 nM.

As a reminder, the IC50 is the midpoint of a concentration-inhibition curve.
